Laboratory results taken from PubChem BioAssay (NCI).
Several values for one entry are separate records, joined by “and”; a condition that tells them apart may be missing. Equal entries are not always repeated.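 Grown in 96-well plates, cells were treated for 48 hours with each compound at five concentrations. Insufficient inhibition: endpoint recorded as highest concentration tested. GI50: concentration for 50% inhibition of growth. TGI denotes the concentration required for complete inhibition of growth.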

Key:
Experiment in all cases: DTP human tumour cell line panel, 48 h
[1] = tested on: CAKI-1 renal
[2] = tested on: M14 melanoma
[3] = tested on: NCI-H23 lung
[4] = tested on: NCI-H522 lung
[5] = tested on: SF-295 CNS
[6] = tested on: SF-539 CNS
[7] = tested on: SK-MEL-28 melanoma
[8] = tested on: SN12C renal
[9] = tested on: SNB-19 CNS
[10] = tested on: UACC-257 melanoma

SMILES | TGI [1] | TGI [2] | TGI [3] | TGI [4] | TGI [5] | TGI [6] | TGI [7] | TGI [8] | TGI [9] | TGI [10] | GI50 [1] | GI50 [2] | GI50 [3] | GI50 [4] | GI50 [5] | GI50 [6] | GI50 [7] | GI50 [8] | GI50 [9] | GI50 [10]
CC1=C2C(=O)C(C)(C)C=C2C(=O)[C@](C)(O)C12CC2 | > 1 µM | > 1 µM | > 1 µM | 0.7 µM | > 1 µM | > 1 µM | > 1 µM | > 1 µM | > 1 µM | > 1 µM |  |  |  |  |  |  |  |  |  | 
c1ccc(/N=C2\c3ccccc3CN2c2ccccn2)nc1 | > 100 µM | > 100 µM | > 100 µM | > 100 µM | > 100 µM | > 100 µM | > 100 µM | > 100 µM | > 100 µM | > 100 µM |  |  |  |  |  |  |  |  |  | 
CC(C(=O)c1ccccc1)C1(O)C(=O)Nc2ccccc21 (centres undefined) | > 100 µM | > 100 µM | > 100 µM | > 100 µM | > 100 µM | > 100 µM | > 100 µM | > 100 µM | > 100 µM | > 100 µM |  |  |  |  |  |  |  |  |  | 
CCOC(=O)CNC1C(NC(C)=O)C(OC)OC2COC(c3ccccc3)OC21 (centres undefined) | > 100 µM | > 100 µM | > 100 µM | > 100 µM | > 100 µM | > 100 µM | > 100 µM | > 100 µM | > 100 µM | > 100 µM |  |  |  |  |  |  |  |  |  | 
O=C(Nc1ccc(Cl)cc1)c1cc2cc(F)ccc2cc1O | 8.96 µM | > 100 µM | 7.33 µM | 3.03 µM | 6.72 µM | 14.3 µM | > 100 µM | > 100 µM | > 100 µM | 5.2 µM | 0.838 µM | 2.23 µM | 0.929 µM | 0.359 µM | 2.47 µM | 1.26 µM | 1.75 µM | 1.78 µM | 2.2 µM | 1.34 µM
O=C1CCC2=C3C4CCCCC4C(=O)C4CCCC(OC2C1)C34 (centres undefined) | 5.47 µM | 4.23 µM | 2.73 µM | 1.27 µM | 15.5 µM | > 100 µM | > 31.4 µM | > 24.7 µM | > 100 µM | 4.93 µM | 1.34 µM | 1.28 µM | 0.417 µM | 0.434 µM | 2.49 µM | 2.44 µM | 4.84 µM | 0.849 µM | 2.59 µM | 1.65 µM
CC1OC(O[C@H]2/C=C/C=C/C=C/C=C/C=C/C=C/C=C/[C@H](C)[C@@H](O)[C@@H](C)[C@H](C)OC(=O)C[C@H](O)C[C@H](O)CC[C@@H](O)[C@H](O)C[C@H](O)C[C@]3(O)C[C@H](O)[C@@H](C(=O)O)[C@H](C2)O3)C(O)C(N)C1O (some centres undefined) | 41.7 µM | 29.2 µM | 34.5 µM | 20.9 µM | > 72.8 µM | 47.3 µM | 35.2 µM | 9.15 µM | 50.2 µM | 40.4 µM | 12.7 µM | 11 µM | 14.3 µM |  | > 61.3 µM | 19.3 µM | 12 µM | 2.01 µM | 37.8 µM | 12.2 µM
O=C(O[C@H]1CN[C@H](C#Cc2cc3ncnc(Nc4ccc(OCc5cccc(F)c5)c(Cl)c4)c3s2)C1)N1CCOCC1 | > 25 µM | > 25 µM | > 25 µM | 8.12 µM | > 25 µM | 12 µM | > 25 µM | > 25 µM | > 25 µM | > 25 µM | 3.17 µM | 12.6 µM | 9.7 µM | 1.41 µM | 9 µM | 5.09 µM | 12.4 µM | 5.66 µM | > 25 µM | > 19.1 µM
NCC1OC(n2cnc3c(=O)[nH]c(N)nc32)C(O)C1O (centres undefined) | > 100 µM | > 100 µM | > 100 µM | > 100 µM | > 100 µM | > 100 µM | > 100 µM | > 100 µM | > 100 µM | > 100 µM |  |  |  |  |  |  |  |  |  | 
O=S1c2ccccc2N=C(c2ccc(Cl)cc2)CC1c1cccs1 (centres undefined) | > 100 µM | 37.4 µM | 85.3 µM | 83.5 µM | 39.5 µM | 32.5 µM | 38.4 µM | 38 µM | 45.2 µM | 63.5 µM |  |  |  |  |  |  |  |  |  | 
COc1cc2c(Nc3ccc(Br)cc3F)ncnc2cc1OCC1CCN(C)CC1 | 5.24 µM and > 10 µM | 3.62 µM and 3.66 µM | 21.9 µM and > 10 µM | 7.31 µM and > 10 µM | 15.3 µM and > 10 µM | 9.49 µM and > 10 µM | 3.27 µM and 4.2 µM | 12.1 µM and > 10 µM | 18.3 µM and > 10 µM | 3.44 µM and 3.6 µM | 0.729 µM and 1.28 µM | 1.91 µM and 1.74 µM | 9.57 µM and > 10 µM | 2 µM and 1.28 µM | 5.39 µM and > 10 µM | 2.93 µM and 7.94 µM | 1.68 µM and 1.78 µM | 1.58 µM and 3.04 µM | 4.7 µM and > 10 µM | 1.85 µM and 1.73 µM
O=C1CC2C(=O)C1C(C(=O)O)C2C(=O)O (centres undefined) | > 100 µM | > 100 µM | > 100 µM | > 100 µM | > 100 µM | > 100 µM | > 100 µM | > 100 µM | > 100 µM | > 100 µM |  |  |  |  |  |  |  |  |  | 
ClC1(c2ccccc2)c2ccc(Br)cc2-c2cc(Br)ccc21 | 29.4 µM | 28.7 µM | 29.3 µM | 30.6 µM | 31.8 µM | 33.3 µM | 35.8 µM | 34.9 µM | 31.3 µM | 34.9 µM |  |  |  |  |  |  |  |  |  | 
COc1ccc(-c2nc(N)c3ncn(C4OC(CO)C(O)C4O)c3n2)cc1 (centres undefined) | > 100 µM | > 100 µM | > 100 µM | > 100 µM | > 100 µM | > 100 µM | > 100 µM | > 100 µM | > 100 µM | > 100 µM |  |  |  |  |  |  |  |  |  | 
CCOC(=O)/C(C#N)=C\C=C1/C=CNC2=NCCN21 | > 100 µM | > 100 µM | > 100 µM | > 100 µM | > 100 µM | > 100 µM | > 100 µM | > 100 µM | > 100 µM | > 100 µM |  |  |  |  |  |  |  |  |  | 
CCC(c1ccc(OC)cc1)C(CC)c1ccc(O)c(CN2CCCC2)c1 (centres undefined) | 20 µM | 5.08 µM | 15.6 µM | 3.79 µM | 4.85 µM | 15.6 µM | 4.57 µM | 20.2 µM | 17.2 µM | 4.7 µM | 6.1 µM | 2.15 µM | 3.66 µM | 1.66 µM | 2.12 µM | 4.16 µM | 2.04 µM | 5.61 µM | 4.39 µM | 2.1 µM
